Legend:
[1] = system: phospho-STAT-1, -3 and -5 in CD4, CD8 T cells and monocytes (CAR T product, PBMCs); experiment: Intracellular phospho-STAT-1, -3, -5 by flow cytometry in immune cell subsets of CAR T product and PBMCs; assay type: cell-based, human; conditions: for pSTAT-5 inhibition: GM-CSF stimulated PBMC
Experimental: (§1) Further experiments were performed to look at impacts of JAK inhibitors on STAT phosphorylation in various immune cell subsets.

in vitro = conditions: human
Experimental: 96-well plates were coated with 100 μl of KIP-1 antibody per well at 1 μg/ml in PBS and plates were incubated at 4° C. overnight. CAR-T cells were thawed and were rested in ImmunoCult expansion medium and incubated overnight at 37° C. Cells were then counted and resuspended at 2 million cells/ml and seed at 200,000 cells per well in 100 μl of expansion medium with 10 ng/ml recombinant IL2. For groups treated with KIP-1, 100 μl of expansion medium were added with 2× final drug dilutions. For CD3/CD28 treated groups, 100 μl of expansion media were added with 2× final drug dilutions containing 25 μl/ml of CD3/CD28 T cell activator from StemCell Technologies. Cells were then incubated at 37° C. After 4 days, cells were counted and diluted 1 to 8-fold in expansion media and then transferred to a 24-well plate. Cell counts were repeated at day 7 and transferred to T25 flasks. On day 11, all cells were harvested and counted.

[2] = system: NALM6.GFP.LUC.CD19 target cells; experiment: Serial killing assay of CAR-T, percent cytotoxicity by luciferase detection; conditions: in vitro at clinically relevant dose levels
[3] = system: phospho-STAT-1, -3 and -5 in purified CD14+ monocytes; experiment: Intracellular phospho-STAT-1, -3, -5 by BD PhosphoFlow in purified monocytes; assay type: cell-based, human
Experimental: as §1

[4] = system: phospho-STAT panel (pSTAT3/4/5), CD3+ T cells; experiment: phospho-STAT induction by IL-6, MesoScale Discovery phospho-STAT panel; assay type: cell-based, human; conditions: for pSTAT3 / pSTAT4 / pSTAT5: CD3+ T cells
Procedure, shortened: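 CD19 CAR-T cells, PBMC or CD3+ T cells, rested overnight, were stimulated at 700,000 cells/well with 100 ng/ml IL6 plus compound for 20 minutes at 37° C. Cells were lysed in Tris buffer and pSTAT3/4/5 measured by MSD electrochemiluminescence immunoassay.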

Nalm6 cells = experiment: Serial killing assay, T-cell (CD4, CD8) and Nalm6 cell counts by flow cytometry; assay type: cell-based, human
Experimental: T-cell counts (CD4 and CD8) were assessed by flow cytometry.
Nalm6 cells were assessed by flow cytometry.
T-cell counts (CD4 and CD8) and Nalm6 cells were assessed by flow cytometry.

[5] = purified CD14+ monocytes, CAR T cell-derived supernatant, 30 min
[6] = purified CD14+ monocytes, rh-GM-CSF-induced
[7] = purified CD14+ monocytes, rhIFNg-induced
[8] = purified CD14+ monocytes, rhIL6-induced
[9] = purified monocytes, CAR T derived cytokines/supernatant stimulation, 30 min
[10] = E:T ratio of 1:1, dose titration

## O=C(Nc1nc2cccc(-c3ccc(CN4CCS(=O)(=O)CC4)cc3)n2n1)C1CC1 [filgotinib]
[1]; CAR T product
  inhibitory activity of each p-STAT, CD4 versus CD8 T cells: stronger inhibitory activity (magnitudes) of each p-STAT in CD4 T cells compared to CD8 T cells
[1]; CD4 CART cells
  Primary Cell IL-6 pSTAT1 signaling (% inhibition): 45%
  Primary Cell IL-6 pSTAT3 signaling (% inhibition): 50%
  Primary Cell IL-6 pSTAT5 signaling (% inhibition): 59%
[1]; CD8 CART cells
  Primary Cell IL-6 pSTAT1 signaling (% inhibition): 17%
  Primary Cell IL-6 pSTAT3 signaling (% inhibition): 38%
  Primary Cell IL-6 pSTAT5 signaling (% inhibition): 50%
[1]; CD3+ T cells
  pSTAT-5 inhibition: 40%
[1]; CD14+ monocytes
  pSTAT-5 inhibition: 28%
[1]; IL-6 stimulation
  effect on phosphorylated-STAT-1, -STAT-3 and -STAT5 levels: reduction of phosphorylated-STAT-1, -STAT-3 and -STAT5 levels
[1]; Monocytes within bulk PBMCs
  Primary cell GM-CSF-pSTAT5, inhibition: 28%
[1]; PBMC CD4 T cells
  Primary Cell IL-6 pSTAT1 signaling (% inhibition): 67%
  Primary Cell IL-6 pSTAT3 signaling (% inhibition): 52%
  Primary Cell IL-6 pSTAT5 signaling (% inhibition): 83%
[1]; PBMC CD8 T cells
  Primary Cell IL-6 pSTAT1 signaling (% inhibition): 26%
  Primary Cell IL-6 pSTAT3 signaling (% inhibition): 37%
  Primary Cell IL-6 pSTAT5 signaling (% inhibition): 49%
[1]; PBMC Monocytes
  Primary Cell IL-6 pSTAT1 signaling (% inhibition): 50%
  Primary Cell IL-6 pSTAT3 signaling (% inhibition): 74%
  Primary Cell IL-6 pSTAT5 signaling (% inhibition): 34%
[1]; T cells from PBMCs
  inhibitory activity of each p-STAT, CD4 versus CD8 T cells: stronger inhibitory activity (magnitudes) of each p-STAT in CD4 T cells compared to CD8 T cells
[1]; T cells within bulk PBMCs
  Primary cell GM-CSF-pSTAT5, inhibition: 40%
In vitro
  viability at 0 day, 500 nM: 75%
  viability at 0 day, 1000 nM: 75%
  viability at 4 day, 500 nM: 61.1%
  viability at 4 day, 1000 nM: 59.9%
  viability at 8 day, 500 nM: 78.9%
  viability at 8 day, 1000 nM: 85.1%
  viability at 12 day, 500 nM: 91.8%
  viability at 12 day, 1000 nM: 87.7%
[2]
  effect on CAR T cells in cell killing, serial killing and T cell expansion assays: not accompanied by a detrimental effect on CAR T cells
[3]
  IFN-gamma induction of pSTAT-1, 3 and 5: strongly suppressed
[3]; purified CD14+ monocytes
  pSTAT-5 induction by GM-CSF: not inhibited
[3]; [5]
  Monocyte-specific pSTAT1 signaling, inhibition: 91%
  Monocyte-specific pSTAT3 signaling, inhibition: 100%
  Monocyte-specific pSTAT5 signaling, inhibition: 0%
[3]; [6]
  Monocyte-specific pSTAT1 signaling, inhibition: na/ni
  Monocyte-specific pSTAT3 signaling, inhibition: na/ni
  Monocyte-specific pSTAT5 signaling, inhibition: 0%
[3]; [7]
  Monocyte-specific pSTAT1 signaling, inhibition: 100%
  Monocyte-specific pSTAT3 signaling, inhibition: 100%
  Monocyte-specific pSTAT5 signaling, inhibition: 98%
[3]; [8]
  Monocyte-specific pSTAT1 signaling, inhibition: na/ni
  Monocyte-specific pSTAT3 signaling, inhibition: 51%
  Monocyte-specific pSTAT5 signaling, inhibition: na/ni
[3]; purified monocytes stimulated by IL-6
  pSTAT-3 inhibition: 51%
[3]; [9]
  pSTAT1 inhibition: 91%
  pSTAT3 inhibition: 100%
[4]; 100 ng/ml IL-6 + drug 10 uM, 20 min, MSD signal (No stim. 689, IL-6 alone 33641)
  pSTAT3: 2169
[4]; 100 ng/ml IL-6 + drug 10 uM, 20 min, MSD signal (No stim. 1964, IL-6 alone 15405)
  pSTAT4: 2121
[4]; 100 ng/ml IL-6 + drug 10 uM, 20 min, MSD signal (No stim. 9210, IL-6 alone 17743)
  pSTAT5: 1610
[4]; IL-6 + drug 0.125 uM, MSD signal (No stim. 689, IL-6 alone 33641)
  pSTAT3: 23255
[4]; IL-6 + drug 0.125 uM, MSD signal (No stim. 1964, IL-6 alone 15405)
  pSTAT4: 9977
[4]; IL-6 + drug 0.125 uM, MSD signal (No stim. 9210, IL-6 alone 17743)
  pSTAT5: 10484
[4]; IL-6 + drug 0.5 uM, MSD signal (No stim. 689, IL-6 alone 33641)
  pSTAT3: 15242
[4]; IL-6 + drug 0.5 uM, MSD signal (No stim. 1964, IL-6 alone 15405)
  pSTAT4: 5570
[4]; IL-6 + drug 0.5 uM, MSD signal (No stim. 9210, IL-6 alone 17743)
  pSTAT5: 5170
[4]; IL-6 + drug 1 uM, MSD signal (No stim. 689, IL-6 alone 33641)
  pSTAT3: 11163
[4]; IL-6 + drug 1 uM, MSD signal (No stim. 1964, IL-6 alone 15405)
  pSTAT4: 4642
[4]; IL-6 + drug 1 uM, MSD signal (No stim. 9210, IL-6 alone 17743)
  pSTAT5: 3679
[4]; IL-6 + drug 5 uM, MSD signal (No stim. 689, IL-6 alone 33641)
  pSTAT3: 2667
[4]; IL-6 + drug 5 uM, MSD signal (No stim. 1964, IL-6 alone 15405)
  pSTAT4: 2172
[4]; IL-6 + drug 5 uM, MSD signal (No stim. 9210, IL-6 alone 17743)
  pSTAT5: 1797
[4]; IL-6 stimulation 100 ng/ml, 20 minutes, 10 μM to 0.125 μM
  effect on phosphorylated-STAT-1, STAT-3 and STAT-5 levels: reduction of phosphorylated-STAT-1, STAT-3 and STAT-5 levels in a dose-responsive manner
[4]; lower dose titration, IL-6 + drug 3.125 nM, MSD signal (No stim. 123, IL-6 alone 5767)
  pSTAT3: 4968
[4]; lower dose titration, IL-6 + drug 3.125 nM, MSD signal (No stim. 281, IL-6 alone 3624)
  pSTAT4: 3059
[4]; lower dose titration, IL-6 + drug 3.125 nM, MSD signal (No stim. 324, IL-6 alone 2352)
  pSTAT5: 2812
[4]; lower dose titration, IL-6 + drug 6.25 nM, MSD signal (No stim. 123, IL-6 alone 5767)
  pSTAT3: 6740
[4]; lower dose titration, IL-6 + drug 6.25 nM, MSD signal (No stim. 281, IL-6 alone 3624)
  pSTAT4: 4324
[4]; lower dose titration, IL-6 + drug 6.25 nM, MSD signal (No stim. 324, IL-6 alone 2352)
  pSTAT5: 2724
[4]; lower dose titration, IL-6 + drug 12.5 nM, MSD signal (No stim. 123, IL-6 alone 5767)
  pSTAT3: 6547
[4]; lower dose titration, IL-6 + drug 12.5 nM, MSD signal (No stim. 281, IL-6 alone 3624)
  pSTAT4: 3479
[4]; lower dose titration, IL-6 + drug 12.5 nM, MSD signal (No stim. 324, IL-6 alone 2352)
  pSTAT5: 2253
[4]; lower dose titration, IL-6 + drug 25 nM, MSD signal (No stim. 123, IL-6 alone 5767)
  pSTAT3: 5737
[4]; lower dose titration, IL-6 + drug 25 nM, MSD signal (No stim. 281, IL-6 alone 3624)
  pSTAT4: 3452
[4]; lower dose titration, IL-6 + drug 25 nM, MSD signal (No stim. 324, IL-6 alone 2352)
  pSTAT5: 2020
[4]; lower dose titration, IL-6 + drug 50 nM, MSD signal (No stim. 123, IL-6 alone 5767)
  pSTAT3: 6248
[4]; lower dose titration, IL-6 + drug 50 nM, MSD signal (No stim. 281, IL-6 alone 3624)
  pSTAT4: 3208
[4]; lower dose titration, IL-6 + drug 50 nM, MSD signal (No stim. 324, IL-6 alone 2352)
  pSTAT5: 1951
[4]; lower dose titration, IL-6 + drug 100 nM, MSD signal (No stim. 123, IL-6 alone 5767)
  pSTAT3: 5441
[4]; lower dose titration, IL-6 + drug 100 nM, MSD signal (No stim. 281, IL-6 alone 3624)
  pSTAT4: 2047
[4]; lower dose titration, IL-6 + drug 100 nM, MSD signal (No stim. 324, IL-6 alone 2352)
  pSTAT5: 1246
Nalm6 cells; [10]
  persistence of T-cells (CD4 and CD8 counts): Improved persistence
  serial killing assessed by Nalm6 cells (flow cytometry): enhance serial killing in a dose-dependent manner
Nalm6 cells; E:T ratio of 1:3, dose titration
  impact on T-cell counts and Nalm6 cell counts: not impacted
